{
  "source": "patent US20080261309A1",
  "about": "“IN VITRO MULTIPLICATION OF HOODIA PLANTS” (CONOPCO, INC., D/B/A/ UNILEVER, priority 2007, published 2008)",
  "key": {"Hoodia explants [1]": {"system": "Hoodia explants", "assay": "Effect of BAP and IAA concentrations and combinations on shoot multiplication", "type": "cell-based, Hoodia gordonii", "description": "In all the multiplication and later rooting trials, the experiments were carried out in a randomised factorial design with at least four replicates per treatment. The student's t-test was used to determine significant difference between the phytohormone treatments. P values≦0.05 was considered significant.\nThis example tested the effect of different benzylaminopurine (BAP, cytokinin), indoleacetic acid (IAA, auxin) concentration and combinations on shoot multiplication.\nThe basal salt medium used for this experiment was M&S basal salt and vitamins. All the other components were the same as used for initiation medium in Example 1. […] Factorial experiments were designed to test the effect of these phytohormones on shoot multiplication.\nEach treatment had four replicates. Results were obtained after two sub-cultures."}, "Hoodia explants [2]": {"system": "Hoodia explants", "assay": "Effect of gibberellic acid concentrations on shoot elongation and proliferation", "type": "cell-based, Hoodia gordonii", "details": "for Number of new shoots: replicates 1-7", "description": "This Example investigated the effect of various giberellic acid concentrations on shoot elongation and proliferation.\nAn average of four shoots per explant was observed when the GA3 concentration was increased from 2.89 μM to 5.78 μM with 17.74 μM of BAP and 5.71 μM of IAA. As the concentration increased, the shoot length was retarded but side shoots were formed."}, "H. gordonii shoot tips": {"system": "H. gordonii shoot tips", "assay": "Sterilisation of shoot tips: clean plants free of visible bacteria or fungal growth", "set-up": "species or system Hoodia gordonii", "description": "Example 1 investigated the effect of various sterilization protocols on the number of clean shoots and their ability to produce new shoots after sterilization.\nA total of 211 shoot tips (5-6 cm) of fresh H. gordonii plant material were collected from cultivation sites.\nThe shoot tips were washed thoroughly for 3-5 minutes under running tap water and liquid detergent to remove any debris from the field. The spikes on some of the plants were carefully removed with a surgical blade before the sterilisation process. […] Each tub contained around 10 shoot tips placed in 300 ml of the sterilizing solution. The tubs were placed on a shaker at low speed 80 rpm for 5 minutes. After 5 minutes, the mercuric chloride was poured out and the plants were rinsed once in sterile distilled water. After rinsing with sterile distilled water, a second sterilisation process with 30% sodium hypochlorite solution was carried out. The tubs were placed on a shaker at a speed of 80 rpm for 30 or 40 minutes. A total of 188 shoots were sterilized for 30 minutes while […] shoots were sterilized for 40 minutes. After draining the sodium hypochlorite, a batch of the plants were rinsed in distilled sterile water before putting in the initiation medium white another batch was placed directly into the initiation medium without rinsing. Recording of the percentage clean plants was done two weeks after initiation. Clean plants were shoots that were free of visible bacteria or fungal growth.\nAfter sterilisation, the shoot tips were cultured on Murashige and Skoog (M&S) basal salt medium with M&S vitamins supplemented with 30 g/l sucrose, 3 g/l gelrite, 25 mg/l cefotaxime. The phytohormones used for the initiation medium were 17.74 μM Benzylaminopurine (BAP) and 5.71 μM Indole acetic acid (IAA). The pH of all the media tested was adjusted to 5.8 with either 1M potassium hydroxide (KOH) or 1N hydrochloric acid (HCl) before autoclaving at 121° C. for 20 minutes. Each 250 ml bottle contained one shoot tip. All the cultures were incubated at 26±2° C. in a growth room with a 16/8 hour light/dark photoperiod (39-90 μE/m^2/s). New shoot growth normally started a week after sterilisation. After two weeks in culture, bottles that were visibly clean were counted."}, "Hoodia shoots": {"system": "Hoodia shoots", "assay": "Effect of sucrose concentration on new shoot formation", "type": "cell-based, Hoodia gordonii", "details": "lowering sucrose from 30 g/l to 20 g/l in the multiplication medium", "text": "Example 6 tested the effect of three sucrose concentrations 0, 20 and 30 g/l on new shoot formation. All the other supplements were the same as for the initiation medium in Example 1. M&S basal salt and vitamin was used as the basal medium.\nThe sucrose concentrations used for the multiplication experiments were 0, 20 and 30 g/l respectively. There was no multiplication on plants placed in the control (0 g/l) medium which had no sugar. The shoots were stunted and started to turn to yellow after three weeks in culture."}},
  "note": "Where “and” joins values, the source holds several entries; their conditions need not be identical. Equal entries are not always repeated.",
  "data": [
    {"smiles": "c1ccc(CNc2ncnc3[nH]cnc23)cc1", "note": "[BAP, benzylaminopurine]", "values": [
      {"measurement": "Average shoots per explant", "setting": "Hoodia explants [1]; BAP 17.74 μM with IAA 5.71 μM", "value": 4},
      {"measurement": "Callus growth", "setting": "Hoodia explants [1]; BAP 17.74 μM with IAA 5.71 μM, compared to BAP 22.19 μM", "value": "less callus growth"},
      {"measurement": "Average side shoots per explant", "setting": "Hoodia explants [1]; BAP 22.19 μM and IAA 5.71 μM", "value": "four"},
      {"measurement": "Auxiliary shoots production", "setting": "Hoodia explants [1]; BAP concentrations higher than 44.38 μM", "value": "retarded"}
    ]},
    {"smiles": "C=C1C[C@]23C[C@@]1(O)CC[C@H]2[C@@]12C=C[C@H](O)[C@@](C)(C(=O)O1)[C@H]2[C@@H]3C(=O)O", "note": "[GA3, gibberellic acid]", "values": [
      {"measurement": "Number of new shoots", "setting": "Hoodia explants [2]; GA3 1.44 μM", "value": "1 (3×) and 2 (2×) and 0 (2×)"},
      {"measurement": "Shoot elongation and multiplication", "setting": "Hoodia explants [2]; GA3 2.89 μM and 5.77 μM", "value": "elongated and multiplied better"},
      {"measurement": "Number of new shoots", "setting": "Hoodia explants [2]; GA3 2.89 μM", "value": "3 (3×) and 2 (2×) and 4 (2×)"},
      {"measurement": "Increase in length of the initial explant", "setting": "Hoodia explants [2]; GA3 5.77 μM", "value": "~1", "unit": "cm"},
      {"measurement": "Number of new shoots", "setting": "Hoodia explants [2]; GA3 5.77 μM", "value": "4 (2×) and 5 (2×) and 6 and 7 and 8"},
      {"measurement": "Average shoots per explant", "setting": "Hoodia explants [2]; GA3 increased from 2.89 μM to 5.78 μM with 17.74 μM BAP and 5.71 μM IAA", "value": "four"}
    ]},
    {"smiles": "OCl", "note": "[sodium hypochlorite]", "values": [
      {"measurement": "Appearance of shoot tips after sterilisation", "setting": "H. gordonii shoot tips; 30 minute treatment", "value": "still green"},
      {"measurement": "Number of clean plants", "setting": "H. gordonii shoot tips; 30 minutes of sterilisation, out of 188 plants", "value": "170 plants out of 188"},
      {"measurement": "Appearance of shoot tips after sterilisation", "setting": "H. gordonii shoot tips; 40 minute treatment", "value": "heavily bleached on the external tissue"},
      {"measurement": "Number of clean plants", "setting": "H. gordonii shoot tips; 40 minutes of sterilisation, out of 44 total", "value": "41 plants out of 44"},
      {"measurement": "Difference in time taken for shoots to emerge", "setting": "H. gordonii shoot tips; 40 minutes versus 30 minutes bleach treatment, in favour of 30 minutes", "value": "about one"},
      {"measurement": "Contamination rate", "setting": "H. gordonii shoot tips; sterilizing only with sodium hypochlorite (no mercuric chloride), field grown cultures", "value": 80, "unit": "%"}
    ]},
    {"smiles": "OC[C@H]1O[C@@](CO)(O[C@H]2O[C@H](CO)[C@@H](O)[C@H](O)[C@H]2O)[C@@H](O)[C@@H]1O", "note": "[sucrose]", "values": [
      {"measurement": "Effect on shoot development and multiplication", "setting": "Hoodia shoots", "value": "no significant effect"}
    ]}
  ]
}
